Results taken from patent publication US20240300886A1, “ARYLCYCLOHEXYLAMINE DERIVATIVES AND THEIR USE IN THE TREATMENT OF PSYCHIATRIC DISORDERS” (GILGAMESH PHARMACEUTICALS, INC., priority 2021, published 2024).
Like-named read-outs stand apart in the source and are kept apart here.

Tests used:
[1] = Metabolic stability in Gottingen minipig liver microsomes (MPLM); format: in vitro ADME, Gottingen minipigs; conditions: pooled minipig liver microsomes, pH 7.4, 1 μM compound, 0.50 mg protein/mL, NADPH
Protocol: MPLM Stability. Pooled MPLM from Gottingen minipigs (Xenotech Z6000) were used. Microsomal incubations were carried out in multi-well plates. Liver microsomal incubation medium consisted of PBS (100 mM pH 7.4), MgCl2 (1 mM), and NADPH (1 mM), with 0.50 mg of liver microsomal protein per mL. Control incubations were performed by replacing the NADPH-cofactor system with PBS. Test compounds (1 μM, final solvent concentration 1.0%) were incubated with microsomes at 37° C. with constant shaking. Six time points over 60 minutes were analyzed, with 60 μL aliquots of the reaction mixture being drawn at each time point. The reaction aliquots were stopped by adding 180 μL of cold (4° C.) acetonitrile containing 200 ng/mL tolbutamide and 200 ng/mL labetalol as internal standards (IS), followed by shaking for 10 minutes, and then protein sedimentation by centrifugation at 4,000 rpm for 20 minutes at 4° C. Supernatant samples (80 μL) were diluted with water (240 μL) and analyzed for parent compound remaining using a fit-for-purpose liquid chromatography-tandem mass spectrometry (LC-MS/MS) method.
Data Analysis. The elimination constant (kel), half-life (t1/2) and intrinsic clearance (Clint) were determined in a plot of […] versus time, using linear regression analysis.

[2] = Oral bioavailability in rats, Method B (plasma and brain PK); format: in vivo, Sprague Dawley rats; conditions: for half-life / Cmax / AUC(0-inf): male, Sprague Dawley; for half-life / Cmax / AUC(0-inf) / AUC0-inf (iv) / AUC0-inf (po) / F: Method B; for AUC(0-inf) / AUC0-inf (iv) / AUC0-inf (po): values represent AUC0-last; for F: 1 mg/kg
Protocol: (§1) Animals. Male Sprague Dawley rats were used in these studies. Animals were randomly assigned to treatment groups and were fasted for 4 h before dosing.
Drugs. Test compounds were dissolved in a vehicle consisting of normal saline (for compounds used as the HCl salt) or normal saline slightly acidified with aq. HCl (for freebase compounds). They were then administered intravenously (iv) or orally (po) at a dose of […] (calculated based on freebase), as indicated, and at a volume of 5 mL/kg body weight. Compounds were tested as the racemates or pure enantiomers, as indicated.
(§2) Sample Collection and Bioanalysis. Blood samples (approximately 60 μL) were collected under light isoflurane anesthesia (Surgivet®) from the retro orbital plexus at 0.08, 0.25, 0.5, 1, 2, 4, 8, and 24 h (4 animals per time point). Immediately after blood collection, plasma was harvested by centrifugation at 4,000 rpm for 10 min at 4° C. and samples were stored at −70±10° C. until bioanalysis. Following blood collection, animals were immediately sacrificed, the abdominal vena-cava was cut open, and the whole body was perfused from the heart using 10 mL of normal saline, and brain samples were collected from all animals. After isolation, brain samples were rinsed three times in ice-cold normal saline (for 5-10 seconds/rinse using ˜-5-10 mL normal saline in disposable petri dish for each rinse) and dried on blotting paper. Brain samples were homogenized using ice-cold phosphate-buffered saline (pH 7.4). Total homogenate volume was three times the tissue weight. All homogenates were stored at −70±10° C. until bioanalysis. For bioanalysis, 25 μL aliquots of plasma/brain study samples or spiked plasma/brain calibration standards were added to individual pre-labeled micro-centrifuge tubes followed by 100 μL of an internal standard solution (glipizide, 500 ng/mL in acetonitrile) except for blanks, where 100 μL of acetonitrile was added. Samples were vortexed for 5 minutes and then centrifuged for 10 minutes at 4,000 rpm at 4° C. Following centrifugation, 100 μL of each clear supernatant was transferred to a 96 well plate and analyzed with a fit-for-purpose LC-MS/MS method, with authentic samples of each analyte used for calibration and identification.
(§3) Data Analysis. Pharmacokinetic parameters were estimated using the non-compartmental analysis tool of Phoenix® WinNonlin software (Ver 8.0).

[3] = Comparative metabolism/PK of 2R and deuterated 7R in rats after oral administration; format: in vivo, Sprague Dawley rats; conditions: for concentration at 0.083 h / concentration at 0.25 h / concentration at 0.5 h / concentration at 1 h / concentration at 2 h / concentration at 4 h: oral; for concentration at 0.083 h: 0.083 h after 10 mg/kg po of 2R or 7R; for concentration at 0.25 h: 0.25 h after 10 mg/kg po of 2R or 7R; for concentration at 0.5 h: 0.5 h after 10 mg/kg po of 2R or 7R; for concentration at 1 h: 1 h after 10 mg/kg po of 2R or 7R; for concentration at 2 h: 2 h after 10 mg/kg po of 2R or 7R; for concentration at 4 h: 4 h after 10 mg/kg po of 2R or 7R
Protocol: as §1
Drugs. Test compounds 2R and 7R were dissolved in a vehicle consisting of normal saline. They were then administered orally (po) at a dose of 10 mg/kg (calculated based on freebase), and at a volume of 5 mL/kg body weight.
as §2, with “˜5-10” for “˜-5-10”, “7.4)” for “7.4).”, “identification. Concentrations of parent compound (2R or 7R) and metabolite 1R were determined in all samples.” for “identification.”
as §3

[4] = rat brain, 1 mg/kg iv, read-out: t1/2 (iv)
[5] = rat plasma, 1 mg/kg iv, read-out: t1/2 (iv)
[6] = rat plasma, 1 mg/kg iv, read-out: AUC0-inf (iv) (converted)
[7] = rat plasma, 1 mg/kg po, read-out: t1/2 (po)
[8] = rat plasma, 1 mg/kg po, read-out: AUC0-inf (po) (converted)
[9] = rat brain, calculated based on brain exposure (AUC0-last)
[10] = male, Sprague Dawley, rat, plasma, 10 mg/kg, rat plasma, read-out: Mean plasma concentration
[11] = rat brain after 10 mg/kg po of 2R or 7R, parent or metabolite 1R as labelled
[12] = male, Sprague Dawley, rat, brain, 10 mg/kg, rat brain, read-out: Mean brain concentration

SMILES	half-life at 1 μM [1] [min]	microsomal CLint at 1 μM [1] [µL/min/mg]	half-life [2, 4] [min]	Cmax ([2]; rat brain, 1 mg/kg po) [ng/g]	half-life [2, 5] [min]	AUC(0-inf) [2, 6] [ng·h/mL]	Cmax ([2]; rat plasma, 1 mg/kg po) [ng/mL]	half-life [2, 7] [min]	AUC(0-inf) [2, 8] [ng·h/mL]	AUC0-inf (iv) ([2]; rat brain, 1 mg/kg iv) [ng·min/g]	AUC0-inf (po) ([2]; rat brain, 1 mg/kg po) [ng·min/g]	F [2, 9] [%]	F ([2]; rat plasma, based on AUC0-last) [%]	further results
CN[C@@]1(c2ccc(F)cc2)CCCCC1=O [Compound 2R, (R)-2-(4-fluorophenyl)-2(methylamino)cyclohexan-1-one]	38	36.5	3.8	42.8	166	163	17.7	94.8	50.3	27152.4	4915.8	18.1	31	half-life ([2]; rat brain, 1 mg/kg po, read-out: t1/2 (po)): 59.4 min; brain exposure after oral administration compared to enantiomer 2S ([2]; rats): substantially higher brain exposure; half-life ([3]; male, Sprague Dawley, rat, brain, po, 10 mg/kg, rat brain after 10 mg/kg po of 2R or 7R, parent or metabolite 1R as labelled, read-out: t1/2 (brain)): 71 min; concentration at 0.083 h [3, 10]: 37 ng/mL; concentration at 0.25 h [3, 10]: 760 ng/mL; concentration at 0.5 h [3, 10]: 850 ng/mL; concentration at 1 h [3, 10]: 497 ng/mL; concentration at 2 h [3, 10]: 142 ng/mL; concentration at 4 h [3, 10]: 42 ng/mL; Cmax ([3]; male, Sprague Dawley, rat, plasma, po, 10 mg/kg, rat plasma after 10 mg/kg po of 2R or 7R, parent or metabolite 1R as labelled): 850 ng/mL; AUC(0-t) ([3]; male, Sprague Dawley, rat, plasma, po, 10 mg/kg, rat plasma after 10 mg/kg po of 2R or 7R, parent or metabolite 1R as labelled, read-out: AUC0-last (plasma) (converted)): 1200 ng·h/mL; half-life ([3]; male, Sprague Dawley, rat, plasma, po, 10 mg/kg, rat plasma after 10 mg/kg po of 2R or 7R, parent or metabolite 1R as labelled, read-out: t1/2 (plasma)): 70 min; AUC0-last (brain) [3, 11]: 227268 ng·min/g; Cmax (brain) [3, 11]: 2599 ng/g
CN[C@]1(c2ccc(F)cc2)CCCCC1=O [Compound 2S, (S)-2-(4-fluorophenyl)-2-(methylamino)cyclohexan-1-one]	30.9	44.9	42	47.6	42	186	32.3	87.6	37.8	68000.4	3067.2	4.5	20	concentration at 0.083 h [3, 12]: 43 ng/g; concentration at 0.25 h [3, 12]: 1900 ng/g; concentration at 0.5 h [3, 12]: 2600 ng/g; concentration at 1 h [3, 12]: 1510 ng/g; concentration at 2 h [3, 12]: 521 ng/g; concentration at 4 h [3, 12]: 155 ng/g
